Assay results published in article PMC10176470, “Engaging a Non-catalytic Cysteine Residue Drives Potent and Selective Inhibition of Caspase-6” (Journal of the American Chemical Society, 2023).

What was measured:
Experiment in all cases: SILAC proteomics / in-gel fluorescence, competition of probe 13-t labeling by 3a
[1] = molecular target: T1, proteins of HEK293T cells transiently overexpressing caspase-6 (Homo sapiens, UniProt Q9BQG0); settings: Comp; protein MYBBP1A Q9BQG0
T1 sequence (Q9BQG0 1-1328): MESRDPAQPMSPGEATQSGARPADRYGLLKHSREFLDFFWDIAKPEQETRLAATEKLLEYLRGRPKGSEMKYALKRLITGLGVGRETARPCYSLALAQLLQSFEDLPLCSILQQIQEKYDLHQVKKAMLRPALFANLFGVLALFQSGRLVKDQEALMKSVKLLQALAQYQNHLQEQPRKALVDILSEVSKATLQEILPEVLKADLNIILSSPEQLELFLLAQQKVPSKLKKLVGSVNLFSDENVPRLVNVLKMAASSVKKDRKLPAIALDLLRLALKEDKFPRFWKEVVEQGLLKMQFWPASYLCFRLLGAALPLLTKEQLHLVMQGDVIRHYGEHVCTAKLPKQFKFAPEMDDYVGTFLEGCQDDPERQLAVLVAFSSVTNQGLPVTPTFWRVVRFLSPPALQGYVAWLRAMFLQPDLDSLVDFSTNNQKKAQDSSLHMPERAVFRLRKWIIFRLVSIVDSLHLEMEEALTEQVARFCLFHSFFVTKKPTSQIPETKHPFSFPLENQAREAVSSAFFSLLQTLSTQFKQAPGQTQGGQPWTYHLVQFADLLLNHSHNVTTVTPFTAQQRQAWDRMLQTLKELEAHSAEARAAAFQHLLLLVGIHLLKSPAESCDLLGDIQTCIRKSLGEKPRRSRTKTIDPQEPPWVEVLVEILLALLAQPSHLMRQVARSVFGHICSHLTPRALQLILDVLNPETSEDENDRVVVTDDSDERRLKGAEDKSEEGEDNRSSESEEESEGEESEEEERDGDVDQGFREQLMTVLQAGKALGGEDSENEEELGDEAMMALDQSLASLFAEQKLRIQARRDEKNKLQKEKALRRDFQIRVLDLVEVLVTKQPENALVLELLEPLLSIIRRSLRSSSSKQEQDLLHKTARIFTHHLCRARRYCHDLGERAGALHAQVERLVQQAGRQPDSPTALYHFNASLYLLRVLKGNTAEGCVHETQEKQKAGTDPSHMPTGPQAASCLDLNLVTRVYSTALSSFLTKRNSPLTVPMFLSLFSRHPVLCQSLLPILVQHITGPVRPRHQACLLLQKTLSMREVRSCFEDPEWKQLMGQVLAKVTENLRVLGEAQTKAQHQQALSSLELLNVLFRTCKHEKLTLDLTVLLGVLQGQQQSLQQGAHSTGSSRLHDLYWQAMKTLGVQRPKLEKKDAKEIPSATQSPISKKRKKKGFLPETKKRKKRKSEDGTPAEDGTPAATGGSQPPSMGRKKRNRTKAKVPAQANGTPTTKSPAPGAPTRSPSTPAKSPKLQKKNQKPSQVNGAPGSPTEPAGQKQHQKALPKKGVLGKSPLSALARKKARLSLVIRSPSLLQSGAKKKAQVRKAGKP
Description: (§1) Cells were lysed, and heavy and light SILAC lysates were combined in a 1:1 ratio and subjected to CuAAC reaction with azido-biotin to biotinylate probe-labeled proteins for subsequent capture on streptavidin-coated beads. Bead-bound proteins were split for analysis by in-gel fluorescence and tryptic digestion on-bead for LC–MS/MS analysis.
(§2) SILAC labeling and alkyne probe treatment: HEK293T cells were seeded into 8x 15 cm plates at
(§3) a density of 500,000 cells/plate. 4 of these plates were grown in light SILAC DMEM and 4 were
(§4) grown in heavy SILAC DMEM all containing 10% FBS and 4.5g/L glucose. The next day, all 8
(§5) plates were transfected with a pCMV6-Entry plasmid coding for caspase-6-myc-DDK lacking the
(§6) prodomain. After 24 hours, media was replaced with fresh SILAC growth media containing 4.5 g/L
(§7) glucose and 3% FBS. 24 hours later the plates were treated with probe and inhibitor for 1 hours as
(§8) follows: 2 of the light plates were treated with vehicle, 2 light plates and 2 heavy plates treated with
(§9) for 60 minutes. After treatment, media was removed, and cells were washed with 15 mL PBS for 5
(§10) minutes. Cells were then harvested by scraping in cold PBS and lysed in the presence of Roche
(§11) complete protease inhibitors. Lysates were clarified by centrifugation at 10,000xg for 10 minutes and
(§12) the protein in the supernatant was quantified by BCA assay.
(§13) Proteomics assay: 1 mg of each lysate was diluted to 2mg/ml in PBS with Roche complete protease
(§14) inhibitors. To this was added 0.1 mM biotin-azide, 1 mM tris(2-carboxyethyl)phosphine (TCEP), 0.1
(§15) mM Tris((1-benzyl-4-triazolyl)methyl)amine (TBTA) ligand, and 1 mM CuSO4 in a final volume of
(§16) 0.5 mL. The reaction was incubated at room temperature for 1 hour and was vortexed every 15
(§17) minutes. After 1 hour, proteins are precipitated and are pelleted by centrifuging at 16,000xg for 4
(§18) min at 4 °C. The supernatants were discarded, and the pellets were solubilized with 0.5 mL cold
(§19) The cold methanol wash was then repeated, and the washed
(§20) pellets were resuspended in 1 mL of 1.2% SDS and sonicated until clear. The samples were heat
(§21) denatured at 80-90 °C for 5 minutes and any insoluble particles were removed by centrifugation at
(§22) 6,500xg for 5 minutes. The 1 mL supernatant was transferred to a 15 mL conical tubes containing 5
(§23) mL of PBS and 150 µL of washed neutravidin beads were added. The samples were incubated for 2
(§24) hours at 4 °C while rotating, at which point the samples were warmed to resolubilize any precipitated
(§25) SDS. The beads were pelleted by centrifugation at 1400xg for 3 min and washed for 10 minutes with
(§26) the following solutions: 2x 1% NP-40, 2x PBS + 1 M NaCl, and 2x 50 mM ammonium bicarbonate
(§27) (ABC) + 2 M urea. The beads were then transferred to a 1.5 mL microcentrifuge tube using 2x250
(§28) µL 100 mM Tris pH 8.0 + 4 M Guanidium hydrochloride (final volume 500 µL).

[2] = molecular target: proteins of HEK293T cells transiently overexpressing caspase-6 (Homo sapiens, UniProt Q99460)
Chain of proteins of HEK293T cells transiently overexpressing caspase-6 (Homo sapiens, UniProt Q99460) (Q99460 whole entry): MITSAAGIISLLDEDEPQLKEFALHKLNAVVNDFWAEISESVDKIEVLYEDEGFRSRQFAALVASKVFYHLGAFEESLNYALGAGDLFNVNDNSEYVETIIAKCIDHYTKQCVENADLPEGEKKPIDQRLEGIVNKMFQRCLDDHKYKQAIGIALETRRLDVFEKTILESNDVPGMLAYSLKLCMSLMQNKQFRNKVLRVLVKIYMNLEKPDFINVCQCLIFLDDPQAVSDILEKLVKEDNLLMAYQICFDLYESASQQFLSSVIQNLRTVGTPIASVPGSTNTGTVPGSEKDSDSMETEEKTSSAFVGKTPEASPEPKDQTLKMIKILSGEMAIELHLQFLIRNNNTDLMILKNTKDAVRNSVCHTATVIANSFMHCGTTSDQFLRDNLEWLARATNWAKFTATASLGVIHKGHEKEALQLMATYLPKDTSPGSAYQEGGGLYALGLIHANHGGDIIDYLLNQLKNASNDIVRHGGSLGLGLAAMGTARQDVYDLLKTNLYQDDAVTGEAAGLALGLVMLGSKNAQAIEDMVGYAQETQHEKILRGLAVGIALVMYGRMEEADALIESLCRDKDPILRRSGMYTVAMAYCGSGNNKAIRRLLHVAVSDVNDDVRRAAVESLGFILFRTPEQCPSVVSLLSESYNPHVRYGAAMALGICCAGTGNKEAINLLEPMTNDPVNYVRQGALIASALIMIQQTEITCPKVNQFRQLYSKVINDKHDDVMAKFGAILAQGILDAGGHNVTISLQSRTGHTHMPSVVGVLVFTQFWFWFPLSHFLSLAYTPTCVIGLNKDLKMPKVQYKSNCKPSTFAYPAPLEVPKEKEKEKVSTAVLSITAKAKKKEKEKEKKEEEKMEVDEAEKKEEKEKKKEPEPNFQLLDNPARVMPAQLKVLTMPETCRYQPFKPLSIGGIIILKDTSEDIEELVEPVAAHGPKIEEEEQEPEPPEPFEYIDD
Description: as §1, §2, §3, §4, §5, §6, §7, §8, §9, §10, §11, §12, §13, §14, §15, §16, §17, §18, §19, §20, §21, §22, §23, §24, §25, §26, §27, §28

[3] = molecular target: proteins of HEK293T cells transiently overexpressing caspase-6 (Homo sapiens, UniProt P09211)
Chain of proteins of HEK293T cells transiently overexpressing caspase-6 (Homo sapiens, UniProt P09211) (P09211 whole entry): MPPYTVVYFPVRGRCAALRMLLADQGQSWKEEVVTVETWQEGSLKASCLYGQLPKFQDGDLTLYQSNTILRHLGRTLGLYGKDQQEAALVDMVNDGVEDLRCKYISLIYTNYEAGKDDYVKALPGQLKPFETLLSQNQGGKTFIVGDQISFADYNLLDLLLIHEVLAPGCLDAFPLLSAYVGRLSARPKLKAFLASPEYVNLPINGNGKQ
Description: as §1, §2, §3, §4, §5, §6, §7, §8, §9, §10, §11, §12, §13, §14, §15, §16, §17, §18, §19, §20, §21, §22, §23, §24, §25, §26, §27, §28

[4] = molecular target: T2, proteins of HEK293T cells transiently overexpressing caspase-6 (Homo sapiens, UniProt O75844)
T2 sequence (O75844 1-475): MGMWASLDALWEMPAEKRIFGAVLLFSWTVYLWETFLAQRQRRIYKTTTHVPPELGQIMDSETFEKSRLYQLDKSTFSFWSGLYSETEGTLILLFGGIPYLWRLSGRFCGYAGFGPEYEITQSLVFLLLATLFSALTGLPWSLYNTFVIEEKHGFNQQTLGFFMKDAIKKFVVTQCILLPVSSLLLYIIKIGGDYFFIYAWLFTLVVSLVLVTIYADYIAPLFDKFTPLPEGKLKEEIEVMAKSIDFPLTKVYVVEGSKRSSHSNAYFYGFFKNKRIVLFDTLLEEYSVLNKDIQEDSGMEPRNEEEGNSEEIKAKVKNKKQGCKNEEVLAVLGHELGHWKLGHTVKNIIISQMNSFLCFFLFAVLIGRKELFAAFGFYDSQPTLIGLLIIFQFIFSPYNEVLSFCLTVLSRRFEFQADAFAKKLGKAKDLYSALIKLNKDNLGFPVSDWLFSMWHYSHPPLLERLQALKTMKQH
Description: as §1, §2, §3, §4, §5, §6, §7, §8, §9, §10, §11, §12, §13, §14, §15, §16, §17, §18, §19, §20, §21, §22, §23, §24, §25, §26, §27, §28

[5] = molecular target: proteins of HEK293T cells transiently overexpressing caspase-6 (Homo sapiens, UniProt P62701); settings: Comp; protein RPS4X P62701
Description: as §1, §2, §3, §4, §5, §6, §7, §8, §9, §10, §11, §12, §13, §14, §15, §16, §17, §18, §19, §20, §21, §22, §23, §24, §25, §26, §27, §28

[6] = molecular target: proteins of HEK293T cells transiently overexpressing caspase-6 (Homo sapiens, UniProt P46779); settings: Comp; protein RPL28 P46779
Description: as §1, §2, §3, §4, §5, §6, §7, §8, §9, §10, §11, §12, §13, §14, §15, §16, §17, §18, §19, §20, §21, §22, §23, §24, §25, §26, §27, §28

[7] = molecular target: proteins of HEK293T cells transiently overexpressing caspase-6 (Homo sapiens, UniProt Q9H307)
Chain of proteins of HEK293T cells transiently overexpressing caspase-6 (Homo sapiens, UniProt Q9H307) (Q9H307 whole entry): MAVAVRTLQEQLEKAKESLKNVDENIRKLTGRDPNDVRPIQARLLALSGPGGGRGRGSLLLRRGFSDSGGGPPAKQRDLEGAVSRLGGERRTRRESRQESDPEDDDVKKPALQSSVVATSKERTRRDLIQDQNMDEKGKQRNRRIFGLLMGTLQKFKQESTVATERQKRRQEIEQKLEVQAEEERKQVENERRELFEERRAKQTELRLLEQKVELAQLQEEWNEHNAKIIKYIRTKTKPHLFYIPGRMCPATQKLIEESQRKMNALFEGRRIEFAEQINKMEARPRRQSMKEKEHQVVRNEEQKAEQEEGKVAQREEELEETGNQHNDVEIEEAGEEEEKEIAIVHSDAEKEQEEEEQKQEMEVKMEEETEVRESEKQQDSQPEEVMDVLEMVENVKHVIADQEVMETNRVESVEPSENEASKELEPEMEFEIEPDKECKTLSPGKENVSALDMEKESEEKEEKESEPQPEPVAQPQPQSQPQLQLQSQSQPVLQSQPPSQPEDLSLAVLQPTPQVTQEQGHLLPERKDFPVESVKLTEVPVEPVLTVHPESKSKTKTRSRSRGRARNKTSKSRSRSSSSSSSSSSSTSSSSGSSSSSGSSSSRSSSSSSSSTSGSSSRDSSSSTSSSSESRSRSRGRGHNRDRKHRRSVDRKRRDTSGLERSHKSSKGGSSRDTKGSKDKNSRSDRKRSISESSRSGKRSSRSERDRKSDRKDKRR
Description: as §1, §2, §3, §4, §5, §6, §7, §8, §9, §10, §11, §12, §13, §14, §15, §16, §17, §18, §19, §20, §21, §22, §23, §24, §25, §26, §27, §28

[8] = molecular target: proteins of HEK293T cells transiently overexpressing caspase-6 (Homo sapiens, UniProt Q9Y230); settings: Comp; protein RUVBL2 Q9Y230
Chain of proteins of HEK293T cells transiently overexpressing caspase-6 (Homo sapiens, UniProt Q9Y230) (Q9Y230 whole entry): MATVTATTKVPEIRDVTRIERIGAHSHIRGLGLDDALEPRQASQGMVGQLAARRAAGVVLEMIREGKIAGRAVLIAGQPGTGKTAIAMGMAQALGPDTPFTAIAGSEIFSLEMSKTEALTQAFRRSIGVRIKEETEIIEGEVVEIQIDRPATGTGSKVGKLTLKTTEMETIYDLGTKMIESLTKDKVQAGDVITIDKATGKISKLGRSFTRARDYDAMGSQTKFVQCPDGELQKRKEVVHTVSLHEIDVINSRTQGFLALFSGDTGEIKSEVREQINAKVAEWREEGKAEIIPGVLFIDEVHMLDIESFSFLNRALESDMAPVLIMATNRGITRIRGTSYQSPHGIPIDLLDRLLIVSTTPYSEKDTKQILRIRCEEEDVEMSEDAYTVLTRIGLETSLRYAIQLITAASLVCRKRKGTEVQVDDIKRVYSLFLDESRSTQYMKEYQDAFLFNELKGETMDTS
Description: as §1, §2, §3, §4, §5, §6, §7, §8, §9, §10, §11, §12, §13, §14, §15, §16, §17, §18, §19, §20, §21, §22, §23, §24, §25, §26, §27, §28

[9] = molecular target: proteins of HEK293T cells transiently overexpressing caspase-6 (Homo sapiens, UniProt P09874); settings: Comp; protein PARP1 P09874
Chain of proteins of HEK293T cells transiently overexpressing caspase-6 (Homo sapiens, UniProt P09874) (P09874 whole entry): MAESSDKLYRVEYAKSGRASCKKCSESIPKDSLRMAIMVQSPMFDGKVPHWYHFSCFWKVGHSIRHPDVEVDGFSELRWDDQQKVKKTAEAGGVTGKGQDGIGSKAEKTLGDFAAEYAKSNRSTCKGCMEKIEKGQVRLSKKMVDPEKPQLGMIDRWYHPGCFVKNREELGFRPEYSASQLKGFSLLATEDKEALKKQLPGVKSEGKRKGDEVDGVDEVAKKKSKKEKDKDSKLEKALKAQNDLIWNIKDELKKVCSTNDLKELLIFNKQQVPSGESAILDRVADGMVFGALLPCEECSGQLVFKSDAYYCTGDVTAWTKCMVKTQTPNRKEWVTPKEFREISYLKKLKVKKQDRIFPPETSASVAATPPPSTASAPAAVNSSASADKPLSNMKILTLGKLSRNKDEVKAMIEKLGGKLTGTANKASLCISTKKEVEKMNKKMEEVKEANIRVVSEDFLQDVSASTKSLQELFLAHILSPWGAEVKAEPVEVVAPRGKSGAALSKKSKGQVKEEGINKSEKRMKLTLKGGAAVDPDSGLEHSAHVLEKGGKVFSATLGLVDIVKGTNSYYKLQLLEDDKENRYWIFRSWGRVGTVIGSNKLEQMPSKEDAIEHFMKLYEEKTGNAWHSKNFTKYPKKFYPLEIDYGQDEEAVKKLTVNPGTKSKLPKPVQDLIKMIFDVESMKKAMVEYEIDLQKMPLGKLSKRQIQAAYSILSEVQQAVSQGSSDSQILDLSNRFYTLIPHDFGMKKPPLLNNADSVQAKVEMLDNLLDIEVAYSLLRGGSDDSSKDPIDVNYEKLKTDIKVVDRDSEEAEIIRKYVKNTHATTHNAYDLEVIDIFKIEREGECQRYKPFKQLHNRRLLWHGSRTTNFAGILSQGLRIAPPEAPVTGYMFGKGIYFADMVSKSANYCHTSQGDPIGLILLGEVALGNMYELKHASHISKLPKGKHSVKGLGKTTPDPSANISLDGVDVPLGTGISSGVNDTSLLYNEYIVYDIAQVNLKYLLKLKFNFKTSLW
Description: as §1, §2, §3, §4, §5, §6, §7, §8, §9, §10, §11, §12, §13, §14, §15, §16, §17, §18, §19, §20, §21, §22, §23, §24, §25, §26, §27, §28

[10] = protein PSMD1 (Q99460), Exp Comp, analysis C6, p 0.1250, 4 peptides
[11] = protein GSTP1 (P09211), Exp Comp, analysis C6, p 0.5000, 2 peptides
[12] = protein ZMPSTE24 (O75844), Exp Comp, analysis C6, p 0.5000, 2 peptides
[13] = protein PNN (Q9H307), Exp Comp, analysis C6, p 0.5000, 2 peptides

## C=CS(=O)(=O)N1C[C@H](C(=O)Nc2ccc(OC(F)(F)F)cc2)C[C@@H](c2ccccc2)C1 [3a]
[1]
  enrich.exp.med: 0.8156
[2]; Comp, protein PSMD1 Q99460
  enrich.exp.med: 0.9459
[2]; [10]
  enrich.exp.med.lin: 1.926
  enrich.exp.med.log2: 0.9459
[3]; Comp, protein GSTP1 P09211
  enrich.exp.med: 0.9589
[3]; [11]
  enrich.exp.med.lin: 1.9438
  enrich.exp.med.log2: 0.9589
[4]; Comp, protein ZMPSTE24 O75844
  enrich.exp.med: 1.01
[4]; [12]
  enrich.exp.med.lin: 2.0144
  enrich.exp.med.log2: 1.01
[5]
  enrich.exp.med: 0.5823
[6]
  enrich.exp.med: 0.6162
[7]; Comp, protein PNN Q9H307
  enrich.exp.med: 1.018
[7]; [13]
  enrich.exp.med.lin: 2.025
  enrich.exp.med.log2: 1.018
[8]
  enrich.exp.med: 0.7589
[9]
  enrich.exp.med: 0.6484
